Laboratory results from US9226503B2, “Composition and method for attraction of emerald ash borer Agrilus planipennis fairmaire (coleoptera: buprestidae)” (Her Majesty the Queen in Right of Canada, as represented by …, priority 2011, dated 2016).

Key:
A. planipennis [1] = assay: Field trapping 2011 experiment 2: (3Z)-lactone, (3Z)-hexenol and trap height factorial, dark green traps; assay type: in vivo, Agrilus planipennis; conditions: 2×2×2 factorial, lactone 3 mg/lure
Procedure: (§1) Two trapping experiments were conducted in green and white ash plantations (F. pennsylvanica Marsch and F. americana L.) located 40-60 km southeast of Sarnia, Ontario in 2011. Trees were 20-30 yr old, 5-8 m tall, 12-18 cm in diameter, and spaced 2-3 m apart within and between rows. Five sites were used in total: four were green ash and the fifth was a white ash plantation. Trees at four of the sites generally appeared healthy with few or no signs of decline and only a few with obvious signs and symptoms of infestation by A. planipennis. At the fifth site, obvious crown decline and signs of infestation were apparent on about one-quarter of trees.
(§2) Green prism sticky traps (0.30 cm×35.00 cm×58.75 cm) (Synergy Semiochemicals Corp., Burnaby, BC) were used in all field trials, deployed using modified umbrella rig spreaders (Zing Products, Westport, Mass.). Traps were spaced 20-25 m apart and lure treatments replicated in randomized complete block designs. Traps were deployed either using ropes tied between two trees or using a single line over a canopy branch, as described further below for each specific experimental objective. Traps were typically checked every 2 wk and A. planipennis were collected, counted, and sexed.
Experiment 2 was a 2×2×2 factorial experiment designed to test the effects of (3Z)-lactone, (3Z)-hexenol, trap height, and their interactions on numbers of A. planipennis captured on sticky, dark green (540-nm wavelength) (Francese et al 2010a) prism traps. Traps were baited with either (3Z)-lactone, (3Z)-hexenol, (3Z)-lactone+(3Z)-hexenol, or neither compound (unbaited control) and all treatments were deployed both below the canopy or in the mid-canopy. Traps placed below the canopy were suspended from ropes tied between two trees so the trap was 1-1.5 m from either tree and the top of the trap was 1.5-2 m above the ground. Traps in the canopy were deployed from a single line looped over a mid-canopy branch such that traps were 1-1.5 m from the main stem and their tops were 6 m above ground. (3Z)-Lactone was loaded onto rubber septa lures at a dosage of 3 mg/lure. Release rates of the (3Z)-lactone and (3Z)-hexenol were 60-70 μg/day and 50-100 mg/day, respectively at 25° C. Traps were in the field from 8 June-5 August, with one block at one site (Nauvoo Ranch), 5 blocks at a second site (LaSalle, the one white ash plantation), and 4 blocks at a third site (Brook Line). The 3 mg (3Z)-lactone lures were estimated to maintain adequate release rates for a minimum of three weeks and thus were replaced after three weeks; (3Z)-hexenol lures were not replaced during the experiment.
Numbers of A. planipennis captured in the trapping experiments were subjected to ANOVA separately for males and females. […]

A. planipennis [2] = assay: Field trapping 2011 experiment 1: dose-response to (3Z)-lactone with (3Z)-hexenol, dark green traps; assay type: in vivo, Agrilus planipennis; conditions: in combination with (3Z)-hexenol
Procedure: as §1, §2
The two trapping experiments tested the (3Z)-lactone with and without (3Z)-hexenol, at different dosages and heights within the canopy. Experiment 1 was designed to determine the optimum release rate for attractiveness of (3Z)-lactone to male A. planipennis, in combination with (3Z)-hexenol. Dark green (540-nm wavelength) sticky traps (Francese et al 2010a) were suspended using ropes tied between two trees in the mid-canopy and baited with a (3Z)-hexenol lure at release rate of (50-100 mg/day) (Synergy Semiochemicals, Burnaby, B.C.) plus a rubber septum (Wheaton) loaded with either 0, 0.1 mg, 1.0 mg, 10.0 mg, or 50.0 mg of (3Z)-lactone. Respective release rates of the lactone were estimated as ˜2.4 μg/day; ˜22 μg/day; ˜160 μg/day; and −600 μg/day, based on volatile collections on Super-Q® at 25° C. (Silk et al. 2011). (3Z)-Lactone lures were estimated to last three weeks in the field and were replaced once. Trapping was conducted from 9 June-21 July. Lure treatments were replicated 10 times with eight blocks at one site (Anika Mills) and two blocks at a second site (Nauvoo Ranch). (3Z)-Hexenol lures were not changed during the experiment.
Numbers of A. planipennis captured in the trapping experiments were subjected to ANOVA separately for males and females. In experiment 1, ANOVA was used to test the effect of release rate on captures of females and males. Holm-Sidak comparisons were made between treatments and the control, (3Z)-hexenol alone. In experiment 2, we used the general linear model: mean catch=lactone+GLV+trap height+lactone*trap height+GLV*trap height+lactone*GLV+lactone*GLV*trap height+error, in SAS GLM (SAS Institute 1999-2003). Residuals were tested for homogeneity of variance and normality, and a ln(y+1) transformation was used where necessary. We present the untransformed last squares treatment means and their standard errors, along with statistics (P>F) from ANOVA of transformed data.

O=C1C/C=C\CCCCCCCCO1 [(3Z)-lactone, (3Z)-dodecen-12-olide]
mean capture of males per trap, effect of presence of the lure component (A. planipennis [1]): significantly and positively affected
mean catch of females, effect of the lure component (A. planipennis [1]): not
release rate beyond which captures of males decline (A. planipennis [2]; dark green traps): ca. 160 μg/day
trap capture of males, effect of (3Z)-lactone release rate (A. planipennis [2]; 0-50.0 mg lures, p=0.035): varied significantly with (3Z)-lactone release rate
trap capture of females, effect of (3Z)-lactone release rate (A. planipennis [2]; 0-50.0 mg lures, p=0.315): not influenced by (3Z)-lactone release rate
captures of males compared to (3Z)-hexenol alone, 0.1 mg dose (A. planipennis [2]; 0.1 mg lure, release rate 2.4 μg/day at 25° C., p=0.003): highest
captures of males compared to (3Z)-hexenol alone, 1.0 mg dose (A. planipennis [2]; 1.0 mg lure, p=0.052): marginal increase in captures of males
